Data: patent publication US20180325825A1 (GEMPHIRE THERAPEUTICS INC., priority 2015, published 2018)

Columns and labels:
[1] = Pharmacokinetics of prototype combinations of atorvastatin and gemcabene after a single oral dose to male dogs; format: in vivo, male purebred beagle dogs; conditions: 150 mg gemcabene IR, composite data from all animals
[2] = background statement, cited from earlier work

Structure (SMILES): CC(C)(CCCCOCCCCC(C)(C)C(=O)O)C(=O)O [gemcabene, 6,6′-oxybis(2,2-dimethylhexanoic acid)]
- gemcabene pharmacokinetic profile in combination with atorvastatin prototype versus administered alone [1]: essentially the same
- completeness of intestinal absorption in absence or presence of food [2]: essentially unchanged
- effect on the pharmacokinetics of simvastatin and atorvastatin in vivo [2]: not to significantly affect
- absorption in the intestines ([2]; oral): almost complete absorption
